Literature values, collected in patent US20250241356A1, “ORAL COMPOSITION COMPRISING RECEPTOR MODULATOR” (NICOVENTURES TRADING LIMITED, priority 2022, published 2025).
Like-named read-outs stand apart in the source and are kept apart here.

What was measured:
TRPM8 = TRPM8 (Mus musculus, UniProt Q8R4D5)
Chain of TRPM8 (Q8R4D5 whole entry): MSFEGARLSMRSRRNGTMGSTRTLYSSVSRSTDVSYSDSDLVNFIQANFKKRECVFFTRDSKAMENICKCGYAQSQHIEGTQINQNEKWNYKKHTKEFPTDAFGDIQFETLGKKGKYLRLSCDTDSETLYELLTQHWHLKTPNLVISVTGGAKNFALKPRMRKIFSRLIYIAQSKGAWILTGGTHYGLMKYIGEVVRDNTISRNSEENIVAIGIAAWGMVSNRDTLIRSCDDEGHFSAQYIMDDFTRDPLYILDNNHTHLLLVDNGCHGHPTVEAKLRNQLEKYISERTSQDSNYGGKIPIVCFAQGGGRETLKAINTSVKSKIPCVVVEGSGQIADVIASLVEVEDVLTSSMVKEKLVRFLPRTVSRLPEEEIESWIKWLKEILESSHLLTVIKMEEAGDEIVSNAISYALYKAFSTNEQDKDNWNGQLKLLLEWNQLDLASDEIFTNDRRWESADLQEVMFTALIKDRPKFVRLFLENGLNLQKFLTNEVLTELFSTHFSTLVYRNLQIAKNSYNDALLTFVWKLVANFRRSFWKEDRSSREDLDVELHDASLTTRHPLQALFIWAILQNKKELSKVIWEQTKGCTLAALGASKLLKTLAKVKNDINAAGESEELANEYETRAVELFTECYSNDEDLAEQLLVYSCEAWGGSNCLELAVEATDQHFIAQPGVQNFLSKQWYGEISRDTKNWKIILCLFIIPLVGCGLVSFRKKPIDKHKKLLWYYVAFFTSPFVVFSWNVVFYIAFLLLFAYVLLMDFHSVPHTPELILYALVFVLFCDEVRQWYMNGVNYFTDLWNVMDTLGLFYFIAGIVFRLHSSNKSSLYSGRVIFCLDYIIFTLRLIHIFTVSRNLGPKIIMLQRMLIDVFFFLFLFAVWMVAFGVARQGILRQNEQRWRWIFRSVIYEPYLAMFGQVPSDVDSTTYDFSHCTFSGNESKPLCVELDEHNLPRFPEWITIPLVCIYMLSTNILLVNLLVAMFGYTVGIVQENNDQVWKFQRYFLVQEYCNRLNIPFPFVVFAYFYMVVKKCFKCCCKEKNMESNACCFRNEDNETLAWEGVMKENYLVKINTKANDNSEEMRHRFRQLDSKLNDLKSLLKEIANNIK

Row | solubility in water | responses to icilin (TRPM8; extracellular [H+] increased from pH 7.3 to approximately pH 6) | responses to icilin (TRPM8; standard physiological solutions of pH 7.3) | solubility in fats and alcohols | chemical stability when isolated (converts via isomerization into trans-bixin (β-bixin)) | Structure (SMILES)
1 | water-soluble |  |  |  |  | CC(/C=C/C=C(C)/C=C/C(=O)O)=C\C=C\C=C(C)\C=C\C=C(C)\C=C\C(=O)O (stereo in doubt) [norbixin, (2E,4E,6E,8E,10E,12E,14E,16E,18E)-4,8,13,17-tetramethylicosa-2,4,6,8,10,12,14,16,18-nonaenedioic acid]
2 |  | abolished | evokes [Ca2+] dependent responses |  |  | O=C1NC(c2cccc([N+](=O)[O-])c2)=CCN1c1ccccc1O [icilin, 1-(2-hydroxyphenyl)-4-(3-nitrophenyl)-3,6-dihydropyrimidin-2-one]
3 | insoluble in water |  |  | soluble in fats and alcohols | chemically unstable when isolated | COC(=O)/C=C/C(C)=C\C=C\C(C)=C\C=C\C=C(C)\C=C\C=C(C)\C=C\C(=O)O [bixin, (2E,4E,6E,8E,10E,12E,14E,16Z,18E)-20-methoxy-4,8,13,17-tetramethyl-20-oxoicosa-2,4,6,8,10,12,14,16,18-nonaenoic acid]
